One data set concerns Jurkat AdCAR cells. As to the kind of experiment: Jurkat model, static PET/MR and ex vivo biodistribution. Particulars: Jurkat AdCAR vs Jurkat CTRL i.p.; day 1, 3 and 7 after cell injection; 1 h resting uptake. The format is in vivo, mice. As for the experimental part:
Five mice were injected with 1 × 10^7 cells/mL Jurkat LucGFP (CTRL), and five additional mice were injected with 1 × 10^7 cells/mL Jurkat aCAR in 200µl PBS into the peritoneal cavity with a 1 mL syringe (30G canula).
For the Jurkat model a ten-minute static PET scan was performed. The mice were anaesthetized with isoflurane (initially 5%, then 1.5-2) and a catheter was placed into the tail vein. The mice were injected with 13.6 ± 0.24 MBq of [^18F]biotin3FB on average and afterwards placed in an isoflurane box for a one-hour resting uptake. After 1 h, the mice were placed onto the scanner bed, the body was centered into the FOV, and a 10 min PET scan was performed. Afterwards, MR scans were performed as described above. The PET and MR measurements took place on day 1, 3 and 7 after cell injection. When the measurements on the 7th day were finished, the mice were sacrificed and uptake in spleen, lymph nodes, muscle and blood were quantified by ex vivo gamma-counting.
(§1) Reconstruction and analysis of the acquired PET/MR data was performed with Inveon Acquisition Workplace and Inveon Research Workplace (IRW), respectively, using dynamic framing and an ordered subset expectation maximization (OSEM) 3D algorithm. For the second part of the experiment statistic framing was used. […]

The next data set deals with HCT116 AdCAR xenografts. As to the kind of experiment: HCT116 AdCAR xenograft model, PET/MR and ex vivo biodistribution by gamma-counting. It counts as in vivo, NOD.CB17-Prkdcscid/J mice. As for the experimental part: (§2) For the xenograft model, 5 × 10^6 cells/mL cells were injected. Five NOD.CB17-Prkdcscid/J were injected with HCT116 WT, and five additional mice were injected with HCT116 AdCAR subcutaneously into the right flank in a mixture of 1:1 Matrigel and PBS (200 µL per mouse) with a 1 mL syringe (30G canula). Afterwards the tumors grew for approximately two weeks before PET and MR measurements.
(§3) For the xenograft model a one-hour dynamic PET scan was performed. The mice were anaesthetized with isoflurane (initially 5%, then 1.5-2%) and a catheter was placed into the tail vein. The mice were placed onto the scanner bed and the body was centered into the field of view (FOV). Mice were injected with13.6 ± 0.35 MBq of [^18F]biotin3FB on average at the beginning of the PET scan and measured for 1h. Afterwards, MR scans were performed to gain anatomical information using an TurboRare spin-echo sequence. After the scans, the mice were sacrificed, and the organs were collected to quantify radiotracer uptake by ex vivo gamma-counting.
(§4) Reconstruction and analysis of the acquired PET/MR data was performed with Inveon Acquisition Workplace and Inveon Research Workplace (IRW), respectively, using dynamic framing and an ordered subset expectation maximization (OSEM) 3D algorithm. For the second part of the experiment statistic framing was used. Regions of interest (ROIs) were drawn under consideration of the acquired MR images and co-registered with the PET data to obtain time-activity curves (TACs).

A short description of data set [1]: one-hour dynamic PET scan, time activity curves of organs. The format is in vivo, NOD.CB17-Prkdcscid/J mice. As for the experimental part:
as §3, §4

The subject of the next data set is HCT116 CTRL xenografts. As to the kind of experiment: HCT116 control xenograft model, ex vivo biodistribution by gamma-counting. It counts as in vivo, NOD.CB17-Prkdcscid/J mice. Particulars: gamma-counting after 1 h dynamic PET scan, n = 5. As for the experimental part:
as §2, §3, §1

[2] abbreviates: ex vivo biodistribution, xenograft model.

As to “[^18F]biotin3fluorobenzoate [[^18F]biotin3FB]”, in the data set with Jurkat AdCAR cells, the “difference between AdCAR expressing cells and control cells (PET/MR, spleen uptake)” value is reported as “no difference”. Besides, the “uptake in xenografts, ex vivo biodistribution analysis” value was determined as 4.59 % ID/g in the data set on HCT116 AdCAR xenografts (AdCAR expressing xenografts, gamma-counting after 1 h dynamic PET scan, n = 5) and 0.73 % ID/g with HCT116 CTRL xenografts. Also, the “tumor-to-muscle ratio (TMR), AdCAR xenografts compared to control xenografts” value in the data set with HCT116 AdCAR xenografts (P=0.0159, Mann-Whitney test, n = 5 per group) is “significantly higher”. The “absolute tumor uptake, AdCAR xenografts compared to control xenografts” value with HCT116 AdCAR xenografts (p = 0.0050, unpaired t test, n = 5 per group) was “significantly higher”. Besides, the “SUVpeak(aCAR), brain TAC” value in data set [1] (brain, mice with HCT116 AdCAR xenografts) worked out at 0.54. Besides, the “SUVpeak(CTRL), brain TAC” value in data set [1] (brain, mice with HCT116 CTRL xenografts) is given as 0.45. Further, the blood half-life in data set [1] (calculated from the heart TAC, i.v. tail vein) is listed as 2.3 min. In data set [1] (setting [2]), the “radiotracer uptake in the brain” value is “Almost no uptake”. Further, the “radiotracer uptake in the kidney” value in data set [1] (setting [2]) is “High radiotracer uptake”.

These data come from EP4427759A1, “TRACEABLE CHIMERIC ANTIGEN RECEPTOR CELL” (Eberhard-Karls-Universität Tübingen, priority 2023, dated 2024).
